Laboratory results as given in patent publication US10023539B2, “Aryl-cyanoguanidine compounds” (Bayer Pharma Aktiengesellschaft, priority 2014, dated 2018).

Legend:
SMYD2 [1] = target: T1, SMYD2 (Homo sapiens (Human), UniProt Q9NRG4); assay: Scintillation Proximity Assay (SPA) for detection of SMYD2 enzymatic inhibition; assay type: biochemical; settings: read-out: IC50 [mol/l] (SPA Assay)
Experimental: 1.1 Scintillation Proximity Assay (SPA) for Detection of SMYD2 Enzymatic Inhibition
The SMYD2 full length enzyme was produced in-house by expression (with an N-terminal 6×His tag) in E. coli and purification by affinity chromatography on a Ni-NTA Sepharose column followed by a size exclusion chromatography step on a Superdex 200 16/60 column (GE Healthcare).
To this end, 100-fold concentrated compound solutions (in DMSO) were previously prepared by serial dilution (1:3.4) of 2 mM stocks in a clear low volume 384-well source microtiter plate (Greiner Bio-One), from which 50 nl of compound solutions were transferred into a white low volume test microtiter plate from the same supplier. […] The samples were then incubated for 15 min at 22° C. to allow pre-equilibration of the putative enzyme-inhibitor complexes before the start of the methylation reaction, which was initiated by the addition of 2.5 μl 2-fold concentrated solution (in assay buffer) of titrated S-Adenosyl-L-Methionine (3H-SAM, Perkin Elmer, final concentration: 60 nM) and p53 Peptide substrate (final concentration: 1.0 μM). The resulting mixture (5 μl final volume) was shortly centrifuged (2 min., 1500 rpm) and incubated at 22° C. during 30 min. Thereupon the reaction was stopped by adding 3 μl of Streptavidin PS SPA imaging beads (Perkin Elmer, final concentration of 3.12 μg/μl) and “cold” SAM (AK Scientific, 25 μM final concentration) for non-specific binding reduction. Plates containing the stopped reaction were sealed with transparent adhesive foil (Perkin Elmer), centrifuged (2 min., 1500 rpm), and further incubated for—at least—1 h at RT (or overnight at 4° C.) in order to allow the SPA signals to develop. […] IC50 values were calculated by fitting the normalized inhibition data to a 4-parameter logistic equation using the “Screener” analysis software from Genedata.

SMYD2 [2] = target: T1, SMYD2; assay: In Cell Western (ICW) cell-based assay for detection of SMYD2 methylation activity; settings: SMYD2 overexpressing KYSE-150 cells, 72 h treatment, p53K370me1 signal; read-out: IC50 [mol/l] (ICW assay)
Description: For the detection of SMYD2 cellular methylation activity an In Cell Western (ICW) assay was established. This assay allows rapid processing of multiple samples for SMYD2 methylation derived immunofluorescence signals, with normalization to cell number via the use of the nucleic acid dye DRAQ5. […] To detect SMYD2-mediated methylation signals in cells, a customized antibody directed against mono-methylated lysine 370 on protein p53 (p53K370me1) was used.
For conducting the ICW assay 5000 SMYD2 overexpressing KYSE-150 cells/well were seeded in 96-well plates (SIGMA) and cultivated for 24 h. As a control for maximal inhibition of ectopic methylation activity, non-transfected KYSE-150 cells were used. Cells were grown in 49% RPMI 1640 with 49% Ham's F12 media supplemented with 2% heat inactivated fetal calf serum (FCS). […] After 5 washes with PBS, the fluorescence in each well was measured on an Odyssey (LI-COR) scanner at 800 nm (p53K370me1 signal; 764 nm excitation) and 700 nm (DRAQ5 signal; 683 nm excitation). Fluorescence intensity was quantified and normalized to background and DRAQ5 signals. IC50 values were calculated by fitting the normalized inhibition data to a 4-parameter logistic equation (Minimum, Maximum, IC50, Hill; Y=Max+(Min−Max)/(1+(X/IC50)Hill)) for each tested compound. […] Ci (maximal inhibition) was defined as the signal measured for non SMYD2 overexpressing KYSE150 cells.

[3] = methylation of biotinylated p53 Peptide, 3H-SAM, full length SMYD2

T1 sequence (Q9NRG4 whole entry): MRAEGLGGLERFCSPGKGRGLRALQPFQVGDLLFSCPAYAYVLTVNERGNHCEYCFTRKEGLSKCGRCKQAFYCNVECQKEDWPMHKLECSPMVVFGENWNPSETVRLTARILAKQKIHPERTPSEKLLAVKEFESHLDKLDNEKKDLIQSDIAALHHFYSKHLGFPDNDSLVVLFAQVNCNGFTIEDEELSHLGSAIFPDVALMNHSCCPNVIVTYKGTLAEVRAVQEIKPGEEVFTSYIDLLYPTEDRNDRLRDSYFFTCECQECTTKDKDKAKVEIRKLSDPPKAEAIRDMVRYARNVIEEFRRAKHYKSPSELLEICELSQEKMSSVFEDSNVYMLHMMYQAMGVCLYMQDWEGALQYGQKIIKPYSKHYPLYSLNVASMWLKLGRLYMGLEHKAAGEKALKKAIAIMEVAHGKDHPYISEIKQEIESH

IC50 (SMYD2 [1]; [3]) | IC50 (SMYD2 [2]) | IC50 (SMYD2 [1]; comparison example versus WO 2006/072350) | SMILES
0.144 µM | 0.376 µM |  | CCN(C(=O)CO)C1CN(/C(=N\C#N)Nc2ccc(Cl)c(OC(F)F)c2)N=C1c1ccc(Cl)c(Cl)c1 (racemic) [Example 11, Rac-N-[1-{N-[4-chloro-3-(difluoromethoxy)phenyl]-N′-cyanocarbamimidoyl}-3-(3,4-dichlorophenyl)-4,5-dihydro-1H-pyrazol-4-yl]-N-ethyl-2-hydroxyacetamide]
0.0735 µM |  |  | CCN(C(=O)[C@H](N)C(C)C)C1CN(/C(=N\C#N)Nc2cccc(OC(F)F)c2)N=C1c1ccc(Cl)c(Cl)c1 (stereo partly drawn) [Example 41, N-[1-{N′-Cyano-N-[3-(difluoromethoxy)phenyl]carbamimidoyl}-3-(3,4-dichlorophenyl)-4,5-dihydro-1H-pyrazol-4-yl]-N-ethyl-D-valinamide]
 |  | 0.548 µM | CCN(C(=O)CO)C1CN(/C(=N\C#N)Nc2cccc(OC(F)F)c2)N=C1c1ccc(Cl)cc1 (stereo not drawn) [WO 2006/072350 Example 67 more active isomer, reference compound]
